Reference: patent US7141691B2, “Protein-bound derivatives of platinum complexes containing cyclobutane1, 1-dicarboxyllate ligands” (KTB Tumorforschungs GmbH, priority 2003, dated 2006)

System: MaTu (mammary carcinoma)
Test: Efficacy in vivo, MaTu tumor model in naked mice (change in tumor volume)
Conditions: DACH-Pt-CB-1-Mal 75 and 100 mg/kg i.v. once on day 7, carboplatin 100 mg/kg once on day 7 or 75 mg/kg on days 7 and 14
Method: The invention is elucidated in more detail by the following examples in conjunction with the figures. […] Animals: naked mice Tumor model: MaTu (mammary carcinoma) Treatment: DACH-Pt-CB-1-Mal (75 and 100 mg/kg) and carboplatin (100 mg/kg) once on day 7, carboplatin (75 mg/kg) on each of days 7 and 14; i.v. (carboplatin and derivatives each in 0.15 0.3 ml glucose phosphate buffer pH 6.5).

SMILES: O=C(CCOCCN1C(=O)C=CC1=O)OC1CC2(C1)C(=O)[O][Pt]1([NH]C3CCCC[C@H]3[NH]1)[O]C2=O (stereo partly drawn) [DACH-Pt-CB-1-Mal, trans-(R,R/S,S)-cyclohexane-1,2-diaminoplatinum(II)-[3-(6-maleinimido-4-oxacaproyl)cyclobutane-1,1-dicarboxylate]]
- in vivo efficacy (change in the tumor volume) compared to carboplatin: increased compared to carboplatin
